From PMC3417354 (Analytical biochemistry, 2012)

Legend:
human PCNA = human PCNA (Homo sapiens, UniProt P12004); assay: Competition-based fluorescence polarization assay with BODIPY-p21 peptide; format: binding; settings: competition FP, abstract statement
PCNA trimer = assay: Gel filtration chromatography of PCNA/peptide complexes; format: binding, human; settings: Superose 12, peptide : PCNA trimer 1:1; UV 280 nm
[1] = test system: PCNA-dependent DNA synthesis; assay: Inhibition of PCNA-dependent DNA synthesis in HeLa cell extract; format: biochemical, human; settings: PCNA titrated 0.05-2.5 μM (0.1-2.5 μM with 20 μM p21 peptide)
mammalian cells = settings: overexpression in mammalian cells; ref [19]; [20]; cited from earlier work

Chain of human PCNA (P12004 whole entry): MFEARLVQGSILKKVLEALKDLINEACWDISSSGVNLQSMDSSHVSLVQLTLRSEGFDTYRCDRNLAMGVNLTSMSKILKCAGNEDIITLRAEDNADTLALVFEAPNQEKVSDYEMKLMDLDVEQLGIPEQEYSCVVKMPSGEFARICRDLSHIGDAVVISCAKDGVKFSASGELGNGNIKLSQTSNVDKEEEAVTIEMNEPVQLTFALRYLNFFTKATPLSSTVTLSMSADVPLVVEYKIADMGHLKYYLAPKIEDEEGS

KRRQTSMTDFYHSKRRLIFSGGSGGSGGSGGSGGSGGSKRRQTSMTDFYHSKRRLIFS [divalent p21 peptide]
dissociation constant (in words) (human PCNA): low nanomolar dissociation constant
binding of single or multiple PCNA trimers (in words) (PCNA trimer): rules out the binding of multiple PCNA trimers
rescue of DNA synthesis by added PCNA (in words) [1]: reversed the inhibition

20 amino-acid peptide spanning the C-terminus of p21: amino acids 141-160 of the native p21
arrest of cell division (in words) (mammalian cells): able to arrest cell division

KRRQTSMTDFYHSKRRLIFSGGSGGSGGSGGSGGSGGSKRRQTSMTDFYHSKRRLIFSGGSGGSGGSGGSGGSGGSKRRQTSMTDFYHSKRRLIFS [trivalent p21 peptide]
dissociation constant (in words) (human PCNA): low nanomolar dissociation constant
binding of single or multiple PCNA trimers (in words) (PCNA trimer): rules out the binding of multiple PCNA trimers
rescue of DNA synthesis by added PCNA (in words) [1]: reversed the inhibition
